Assay [1] has as its system P. falciparum NF54-pfs16-GFP late (IV-V) stage gametocytes. The conditions noted are these: stage: late (IV-V) gametocyte; incubation 72 h. As to the method: (§1)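 MMV Malaria Box compounds active in the primary screen were retested in dose-response against P. falciparum NF54-pfs16-GFP early (I-III) or late (IV-V) gametocytes, 72 h, 37 C, viable gametocytes counted by confocal imaging; IC50 from an unconstrained 4-parameter fit. Compounds with no plateau have no IC50 and are left out.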

The subject of assay [2] is P. falciparum NF54-pfs16-GFP early (I-III) stage gametocytes. The conditions noted are these: stage: early (I-III) gametocyte; incubation 72 h. The protocol:
as §1

Turning to `COc1ccc(C(=O)C(CCC(CNC(C)(C)C)C(=O)c2ccc(OC)cc2)CNC(C)(C)C)cc1` (stereo unspecified), in assay [1], the “IC50, viable gametocyte number” value is 1.09 µM.

For `CC1=C(CC(=O)c2cccc([N+](=O)[O-])c2)C(=O)c2ccccc2C1=O`, the “IC50, viable gametocyte number” value in assay [2] came to 1.16 µM; in assay [1], 0.745 µM.

As to `OC(CNC1CCCCC1)Cn1c2ccc(I)cc2c2cc(I)ccc21` (stereo unspecified), the “IC50, viable gametocyte number” value in assay [2] worked out at 0.252 µM; in assay [1], 0.063 µM.

Turning to `CSC1=NC(=Nc2c(C)cccc2C)C2(CCC(C(C)(C)C)CC2)N1c1ccc(Cl)cc1` (stereo unspecified), the “IC50, viable gametocyte number” value in assay [1] amounted to 0.592 µM.

Regarding `CCc1ccc(Nc2cc(C)c3ccc(O)cc3n2)cc1`, the “IC50, viable gametocyte number” value in assay [1] was determined as 1.27 µM.

For `Clc1cc(Br)ccc1-c1ccc(CNCC2CCNCC2)o1`, the “IC50, viable gametocyte number” value turned out to be 0.824 µM in assay [2] and 0.692 µM in assay [1].

For the compound `CCN(CC)CCn1c(=N)n(CC(O)c2ccc(Cl)c(Cl)c2)c2ccccc21` (stereo unspecified), the figures for the “IC50, viable gametocyte number” value in assay [2] and in assay [1] were 1.44 µM and 1.09 µM, respectively.

As for `COC(=O)c1ccc(C2C3=C(O)CC(c4ccc(F)cc4)CC3=Nc3ccccc3N2C(=O)c2ccccc2)cc1` (stereo unspecified), the “IC50, viable gametocyte number” value in assay [1] came to 1.13 µM.

Take `CCN(CC)CCNc1ccnc2cc3ccccc3cc12`: the “IC50, viable gametocyte number” value in assay [2] stood at 1.71 µM.

On to `COc1ccc(C(=O)NC(c2ccc(Cl)cc2Cl)c2cc(Cl)c3cccnc3c2O)cc1` (stereo unspecified), for which the “IC50, viable gametocyte number” value in assay [1] was 1.07 µM.

Take `CC(C)(C)c1ccc2c(c1)CN(Cc1ccc(Cl)cc1)CO2`: the “IC50, viable gametocyte number” value in assay [1] came to 0.92 µM.

Turning to `CCOC(=O)c1c(NC(=O)c2ccccc2)sc2c(O)c(CN(CC)CC)ccc12`, the entries for the “IC50, viable gametocyte number” value in assay [2] and in assay [1] were 0.81 µM and 0.371 µM, respectively.

As for `COc1ccc(-c2nc(N3CCN(C(=O)C4CCCCC4)CC3)c3c4c(sc3n2)CCCC4)cc1`, the “IC50, viable gametocyte number” value in assay [1] was 1.29 µM.

For `O=C1c2ccccc2C2=Nc3ccccc3SC(c3cccc(F)c3)C12` (stereo unspecified), in assay [1], the “IC50, viable gametocyte number” value is 0.733 µM.

As to `CN(C)c1ccc(C(O)(c2ccc(N(C)C)cc2)c2ccc(N(C)C)cc2)cc1`, the figures for the “IC50, viable gametocyte number” value in assay [2] and in assay [1] were 0.769 µM and 0.315 µM, respectively.

As to `CCCCCCn1c(=N)n(CC(O)COc2cccc(C)c2)c2ccccc21` (stereo unspecified), in assay [1], the “IC50, viable gametocyte number” value was found to be 1.61 µM.

In the case of `CC(C)(C)c1ccc(O)c(CNC2CCCCC2)c1`, the entries for the “IC50, viable gametocyte number” value in assay [2] and in assay [1] were 0.712 µM and 0.382 µM, respectively.

`Cc1ccc2c(C)nc(Nc3nc(C)cc(-c4ccccc4)n3)nc2c1`: the “IC50, viable gametocyte number” value in assay [1] stood at 0.673 µM.

For the compound `C=CC12CCN(CC1)C(C(O)c1ccnc3ccc(OC)cc13)C2` (stereo unspecified), the entries for the “IC50, viable gametocyte number” value in assay [2] and in assay [1] were 0.823 µM and 0.276 µM, respectively.

Regarding `CCCc1cc(O)c2c3c(c(=O)oc2c1)CN(C)CC3`, the “IC50, viable gametocyte number” value in assay [1] amounted to 0.591 µM.

With `Oc1ccccc1CN1CCN(C(c2ccccc2)c2ccccc2)CC1`, in assay [1], the “IC50, viable gametocyte number” value is 1.32 µM.

Consider `CC(C)CCNCC(O)Cn1c2ccccc2c2ccccc21` (stereo unspecified), for which the “IC50, viable gametocyte number” value in assay [1] is 1.17 µM.

With `OC1=C2C(=Nc3ccccc3SC2c2ccc(Br)cc2)c2ccccc21` (stereo unspecified), the “IC50, viable gametocyte number” value in assay [1] came out at 0.875 µM.

As for `Brc1ccc(Nc2nc3ccccc3nc2Nc2ccc(Br)cc2)cc1`, the “IC50, viable gametocyte number” value in assay [1] worked out at 0.948 µM.

For the compound `CN(C)c1ccc(C=Cc2nc(=O)c3ccccc3o2)cc1`, in assay [1], the “IC50, viable gametocyte number” value is 0.936 µM.

With `CCOC(=O)C1=C(C)N=c2sc(=Cc3cc(Cl)ccc3O)c(=O)n2C1c1ccc(OC)cc1` (stereo unspecified), the entries for the “IC50, viable gametocyte number” value in assay [2] and in assay [1] were 0.359 µM and 0.228 µM, respectively.

`CCN(CC)CCNc1ccnc2cc(Cl)ccc12`: in assay [2], the “IC50, viable gametocyte number” value amounted to 1.02 µM.

As for `CCCCCCc1cc2cc(-c3nc4ccccc4[nH]3)c(=Nc3ccccc3C)oc2cc1O`, the “IC50, viable gametocyte number” value in assay [2] worked out at 0.819 µM; in assay [1], 0.465 µM.

As to `CN1CCN(c2ccc(Nc3c4ccccc4nc4ccccc34)cc2)CC1`, the results for the “IC50, viable gametocyte number” value in assay [2] and in assay [1] were 1.11 µM and 1.36 µM, respectively.

Take `Cc1ccc(Nc2nc(-c3ccccn3)cs2)cc1`: the “IC50, viable gametocyte number” value stood at 0.461 µM in assay [2] and 0.231 µM in assay [1].

`CCOC(=O)c1cn(CC)c2cc(N(C)CCc3ccc(OC)c(OC)c3)c(F)cc2c1=O`: the “IC50, viable gametocyte number” value in assay [1] was determined as 0.574 µM.

`COc1ccc(C2c3ccc4ccccc4c3Oc3ncn(CCCN(C)C)c(=N)c32)cc1` (stereo unspecified): the “IC50, viable gametocyte number” value in assay [1] is 1.06 µM.

Consider `COc1cc2c(cc1OC)C1=NNC(=O)C1=NC(C)(C)C2`, for which the “IC50, viable gametocyte number” value in assay [1] turned out to be 1.04 µM.

On to `COc1ccc2c(=O)cc(C(Cl)(Cl)Cl)oc2c1`, for which the “IC50, viable gametocyte number” value in assay [2] was found to be 1.21 µM.

As for `COc1cccc(O)c1CN1CCC2(CCCN(Cc3ccc(F)cc3)C2)C1` (stereo unspecified), the “IC50, viable gametocyte number” value in assay [1] amounted to 0.899 µM.

In the case of `COc1ccc(C=C2SC(Nc3ccc(F)cc3)=NC2=O)c(OC)c1`, the “IC50, viable gametocyte number” value in assay [1] is 0.892 µM.

`Cc1cc(Nc2ccc(OCc3ccccc3)cc2)nc2cc(O)ccc12`: the “IC50, viable gametocyte number” value in assay [1] stood at 0.784 µM.

For the compound `CC1CC2=C(CC1CNCCCN(C)C)C(C)(C)CCC2` (stereo unspecified), the “IC50, viable gametocyte number” value in assay [1] came to 0.541 µM.

Consider `COc1ccc(NC(=O)C2c3ccccc3C(=O)N(CC(C)C)C2c2cccs2)cc1Cl` (stereo unspecified), for which the “IC50, viable gametocyte number” value in assay [1] was 0.596 µM.

Take `O=c1cc(NC2CCN(CCCc3ccccc3)CC2)c2cc(Cl)ccc2o1`: in assay [2], the “IC50, viable gametocyte number” value amounted to 1.31 µM.

`OCCNc1nc(Nc2ccc(Cl)c(Cl)c2)nc2ccccc12`: the “IC50, viable gametocyte number” value in assay [1] came to 1.35 µM.

For `CCCCCCc1cc(O)c2c3c(c(=O)oc2c1)CCC(C)C3` (stereo unspecified), the “IC50, viable gametocyte number” value in assay [1] is 0.759 µM.

Take `c1ccc(Cn2c(N=Nc3c(Nc4ccccc4)ccc4ccccc34)nc3ccccc32)cc1`: the “IC50, viable gametocyte number” value in assay [1] came out at 0.183 µM.

As to `Cc1cccc(-n2ncc3c(=O)[nH]c(-n4nc(C)cc4NC(=O)c4cc5ccccc5o4)nc32)c1`, the “IC50, viable gametocyte number” value in assay [1] stood at 1.09 µM.

Regarding `CC1CCCCN1CCCNC(=O)c1ccc2c(c1)sc1nc(-c3ccc(F)cc3)cn12` (stereo unspecified), in assay [2], the “IC50, viable gametocyte number” value is 1.79 µM.

With `CNCCCNc1ccnc2cc(Cl)ccc12`, the “IC50, viable gametocyte number” value is 0.274 µM in assay [2] and 0.31 µM in assay [1].

With `CCOc1ccccc1CN1CCc2nc3cc(C(C)(C)C)nn3c(O)c2C1`, the “IC50, viable gametocyte number” value in assay [1] came to 1.59 µM.

For `CN(C)CCCNc1c2ccccc2nc2ccccc12`, the figures for the “IC50, viable gametocyte number” value in assay [2] and in assay [1] were 1.44 µM and 0.703 µM, respectively.

With `CSc1ccccc1C(=O)Nc1nc(-c2ccccn2)cs1`, the “IC50, viable gametocyte number” value in assay [1] came out at 0.781 µM.

Turning to `Nc1ccc(-c2nc3cc(Cc4ccc5[nH]c(-c6ccc(N)cc6)nc5c4)ccc3[nH]2)cc1`, the “IC50, viable gametocyte number” value in assay [1] was 1.1 µM.

For the compound `CCOC(=O)C1=C(C)N=c2sc(=Cc3ccccc3O)c(=O)n2C1c1ccc(OC)c2ccccc12` (stereo unspecified), the “IC50, viable gametocyte number” value in assay [1] came out at 1.08 µM.

Regarding `COc1ccc(C2=C(c3ccc(OC)cc3)C3(c4ccccc4)C(=O)C2(c2ccccc2)C2C(=O)N(c4ccc(C)cc4)C(=O)C23)cc1` (stereo unspecified), the “IC50, viable gametocyte number” value in assay [1] is 0.333 µM.

`FC(F)(F)c1cccc(Nc2nc3ccccc3nc2Nc2cccc(C(F)(F)F)c2)c1`: the “IC50, viable gametocyte number” value in assay [2] stood at 1.31 µM; in assay [1] it was 0.416 µM.

Regarding `CCCOCc1cc(CN2CCN(c3cccc(Cl)c3)CC2)c(O)c2ncccc12`, the “IC50, viable gametocyte number” value in assay [1] stood at 0.584 µM.

In the case of `COc1ccc(C2NCCc3c2[nH]c2ccccc32)cc1CN1CCN(c2ccc(F)cc2)CC1` (stereo unspecified), the “IC50, viable gametocyte number” value in assay [1] came to 1.17 µM.

With `CCOC(=O)c1cnc2ccc(CC)cc2c1O`, the “IC50, viable gametocyte number” value in assay [1] came to 0.253 µM.

Turning to `Cc1ccc(N2C3c4ccccc4N(S(=O)(=O)c4ccc(C)cc4)C2c2ccccc2N3S(=O)(=O)c2ccc(C)cc2)cc1`, the results for the “IC50, viable gametocyte number” value in assay [2] and in assay [1] were 1.19 µM and 0.208 µM, respectively.

Consider `COc1cccc(C=Cc2nc(=O)c3ccccc3o2)c1OC`, for which the “IC50, viable gametocyte number” value in assay [1] was determined as 0.438 µM.

As for `Cc1sc2ncnc(Sc3nc4ccccc4[nH]3)c2c1C`, the “IC50, viable gametocyte number” value in assay [2] was determined as 1.14 µM; in assay [1], 0.324 µM.

Turning to `Oc1ccc(-c2nc(-c3ccc4oc5ccc(-c6[nH]c(-c7ccc(O)cc7)nc6-c6ccccc6)cc5c4c3)c(-c3ccccc3)[nH]2)cc1`, the “IC50, viable gametocyte number” value in assay [2] was 0.699 µM.

For `Oc1ccccc1CNCC12CC3CC(CC(C3)C1)C2`, the figures for the “IC50, viable gametocyte number” value in assay [2] and in assay [1] were 0.891 µM and 0.415 µM, respectively.

For `Cn1c(=O)n(C)c2cc(CNCCNc3ccnc4cc(Cl)ccc34)ccc21`, in assay [2], the “IC50, viable gametocyte number” value was 0.588 µM.

On to `OC(CNC1CCCCC1)Cn1c2ccccc2c2ccccc21` (stereo unspecified), for which, in assay [1], the “IC50, viable gametocyte number” value came out at 0.897 µM.

For `COc1ccc(C(C)=O)cc1N1C(=O)C2C(C1=O)C1(c3ccccc3)C(=O)C2(c2ccccc2)C(c2ccc(C)cc2)=C1c1ccc(C)cc1` (stereo unspecified), the “IC50, viable gametocyte number” value in assay [1] stood at 0.827 µM.

As to `CCOC(=O)c1cn(CC)c2cc(N3CCCCC3)c(F)cc2c1=O`, the “IC50, viable gametocyte number” value in assay [1] stood at 0.337 µM.

Regarding `Oc1ccccc1CN1CCC2(CCCN(Cc3ccccc3F)C2)C1` (stereo unspecified), the “IC50, viable gametocyte number” value in assay [2] amounted to 1.36 µM; in assay [1], 0.673 µM.

Turning to `COc1ccc(Nc2nc(NCc3ccccc3)c3ccccc3n2)cc1`, in assay [2], the “IC50, viable gametocyte number” value stood at 1.48 µM.

On to `Cc1ccc(-c2cc3c(nn2)-c2ccccc2C3=O)cc1`, for which, in assay [1], the “IC50, viable gametocyte number” value came to 0.603 µM.

Take `CCCCCCc1cc2cc(-c3csc(C=Cc4ccccc4)n3)c(=O)oc2cc1O`: the “IC50, viable gametocyte number” value in assay [2] was 0.83 µM; in assay [1], 0.594 µM.

For `COc1ccc(-c2nc3cc(Cc4ccc5[nH]c(-c6ccc(OC)cc6)nc5c4)ccc3[nH]2)cc1`, the figures for the “IC50, viable gametocyte number” value in assay [2] and in assay [1] were 0.949 µM and 1.11 µM, respectively.

The record behind these values is the supplement of paper PMC3842684.
